The source made the active and inactive calls. The calls are words filed in the database; no cut-off is given here.
What was measured:
Rattus norvegicus [1] = assay: Antidiabetic activity in Sprague-Dawley Rattus norvegicus (rat) STZ-induced diabetic model assessed as decrease in oral glucose-induced plasma glucose level at 5% administered QD for 6 weeks prior to glucose-challenge measured after 120 min by oral glucose tolerence test relative to control; type: functional, organism-based
Rattus norvegicus [2] = assay: Antidiabetic activity in Sprague-Dawley Rattus norvegicus (rat) assessed as STZ-induced fasting plasma triglyceride level at 5% administered QD for 12 weeks (reference value: 54.4 +/- 12.3 […]); type: functional
Rattus norvegicus [3] = assay: Antidiabetic activity in Sprague-Dawley Rattus norvegicus (rat) assessed as STZ-induced fasting plasma free fatty acid level at 5% administered QD for 12 weeks (reference value: 230.8 +/- 16.6 uM); type: functional
Rattus norvegicus [4] = assay: Antidiabetic activity in Sprague-Dawley Rattus norvegicus (rat) assessed as STZ-induced fasting plasma insulin level at 5% administered QD for 12 weeks (reference value: 13.5 +/- 1.6 uU/ml); type: functional
Rattus norvegicus [5] = assay: Antidiabetic activity in Sprague-Dawley Rattus norvegicus (rat) assessed as STZ-induced fasting plasma glucose level at 5% administered QD for 12 weeks (reference value: 318.4 +/- 11.9 mg/dl); type: functional
Rattus norvegicus [6] = assay: Antidiabetic activity in Sprague-Dawley Rattus norvegicus (rat) assessed as STZ-induced body weight at 5% administered QD for 12 weeks (reference value: 268.6 +/- 9.3 g); type: functional
Rattus norvegicus [7] = assay: Antidiabetic activity in Sprague-Dawley Rattus norvegicus (rat) STZ-induced diabetic model assessed as decrease in oral glucose-induced plasma insulin level at 5% administered QD for 12 weeks prior to glucose-challenge measured after 120 min by oral glucose tolerance test relative to control; type: functional, organism-based
Rattus norvegicus [8] = assay: Antidiabetic activity in Sprague-Dawley Rattus norvegicus (rat) STZ-induced diabetic model assessed as decrease in oral glucose-induced plasma glucose level at 5% administered QD for 12 weeks prior to glucose-challenge measured after 120 min by oral glucose tolerance test relative to control; type: functional, organism-based
Rattus norvegicus [9] = assay: Antidiabetic activity in Sprague-Dawley Rattus norvegicus (rat) STZ-induced diabetic model assessed as decrease in oral glucose-induced plasma insulin level at 5% administered QD for 6 weeks prior to glucose-challenge measured after 120 min by oral glucose tolerance test relative to control; type: functional, organism-based

| Compound | Activity (Rattus norvegicus [1]) | Activity (Rattus norvegicus [2]) | Activity (Rattus norvegicus [3]) | Activity (Rattus norvegicus [4]) | Activity (Rattus norvegicus [5]) | Activity (Rattus norvegicus [6]) | Activity (Rattus norvegicus [7]) | Activity (Rattus norvegicus [8]) | Activity (Rattus norvegicus [9]) |
| --- | --- | --- | --- | --- | --- | --- | --- | --- | --- |
| O=C(O[C@@H]1Cc2c(O)cc(O)cc2O[C@@H]1c1cc(O)c(O)c(O)c1)c1cc(O)c(O)c(O)c1 [EPIGALOCATECHIN GALLATE] | Active | 47.9 mg/dL | 151.1 µM | 10.2 uU/ml | 169.6 mg/dL | 251.5 g | Active | Active | Active |
| O=C(O[C@@H]1Cc2c(O)cc(O)cc2O[C@H]1c1cc(O)c(O)c(O)c1)c1cc(O)c(O)c(O)c1 [GALLOCATECHIN GALLATE] | Active | 38.3 mg/dL | 133.5 µM | 8.5 uU/ml | 154.3 mg/dL | 247.7 g | Active | Active | Active |

Reference: ChEMBL document CHEMBL3046376, “Epimerization of epigallocatechin gallate to gallocatechin gallate and its anti-diabetic activity” (2013)
